Results: patent US20080248511A1, “METHODS TO QUENCH LIGHT FROM OPTICAL REACTIONS” (priority 2007, published 2008)
Read-outs that look alike come from different tables or passages of the source.

How the values were obtained:
Type in all cases: biochemical
[1] = target: T1, Renilla luciferase (Renilla reniformis, UniProt P27652); assay: Quaternary ammonium/phosphonium detergent screen, Renilla luciferase (Example 5); settings: final conc. 0.03% detergent; for Retained Renilla Luciferase Luminescence (%) / remaining activity at 0.03 %: Tergitol NP-9 present; for remaining activity at 0.03 %: read-out: Retained Renilla Luciferase Luminescence (%)
T1 sequence (P27652 1-311): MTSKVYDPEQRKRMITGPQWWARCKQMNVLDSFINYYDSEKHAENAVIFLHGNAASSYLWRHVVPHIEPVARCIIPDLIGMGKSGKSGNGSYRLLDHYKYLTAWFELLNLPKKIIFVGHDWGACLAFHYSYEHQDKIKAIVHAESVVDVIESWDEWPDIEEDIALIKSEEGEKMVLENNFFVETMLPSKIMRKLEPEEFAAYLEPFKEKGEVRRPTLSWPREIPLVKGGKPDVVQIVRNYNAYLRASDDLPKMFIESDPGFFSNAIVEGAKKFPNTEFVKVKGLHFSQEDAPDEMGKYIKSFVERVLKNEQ

[2] = target: T2, firefly luciferase (Photinus pyralis, UniProt P08659); assay: Quaternary ammonium/phosphonium detergent screen, firefly luciferase (Example 5); settings: Tergitol NP-9 present
T2 sequence (P08659 whole entry): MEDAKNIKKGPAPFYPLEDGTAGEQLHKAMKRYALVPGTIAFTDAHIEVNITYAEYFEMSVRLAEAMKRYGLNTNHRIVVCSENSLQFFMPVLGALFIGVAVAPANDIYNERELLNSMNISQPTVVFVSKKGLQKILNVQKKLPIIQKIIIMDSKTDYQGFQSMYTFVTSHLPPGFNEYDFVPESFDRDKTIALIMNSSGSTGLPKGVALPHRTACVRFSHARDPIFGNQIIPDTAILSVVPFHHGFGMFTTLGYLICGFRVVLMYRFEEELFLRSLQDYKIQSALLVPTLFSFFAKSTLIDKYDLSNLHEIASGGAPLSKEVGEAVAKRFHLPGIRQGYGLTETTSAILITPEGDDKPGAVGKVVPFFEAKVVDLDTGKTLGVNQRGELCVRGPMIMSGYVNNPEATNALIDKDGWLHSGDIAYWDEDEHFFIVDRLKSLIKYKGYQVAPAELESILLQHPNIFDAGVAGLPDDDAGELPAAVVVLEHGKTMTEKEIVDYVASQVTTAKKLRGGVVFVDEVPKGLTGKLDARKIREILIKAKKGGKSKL
Procedure: (§1) Each detergent was added at 0.2% to a reagent solution containing 50 mM Tricine pH 8.3, 3.5 mM MgSO4, 1 mM CDTA, 30 mM thiourea and 0.5% Tergitol NP-9. This solution or one not containing a detergent inhibitor was used to resuspend the Bright-Glo™ luciferin substrate (Promega).
(§2) The luciferase reactions were initiated by adding 100 μl of the firefly luciferase or Renilla luciferase enzyme solutions to 100 μl of reagent solution. The reactions were performed as described above. […] The detergent concentrations listed refer to the final concentration in the reaction.

[3] = target: T2, firefly luciferase; assay: as above; settings: final conc. 0.03% detergent, Tergitol NP-9 present; for remaining activity at 0.03 %: read-out: Retained Firefly Luciferase Luminescence (%)
[4] = target: T1, Renilla luciferase; assay: Quaternary ammonium/phosphonium detergent screen, Renilla luciferase (Example 5); settings: for Retained Renilla Luciferase Luminescence (%) / remaining activity at 0.1 %: Tergitol NP-9 present
Procedure: as §1, §2

[5] = target: T1, Renilla luciferase; assay: Detergent titration with Tergitol NP-9, digitonin or no lysing agent, Renilla luciferase (Example 4); settings: for remaining activity at 0.0005 % / remaining activity at 0.005 % / remaining activity at 0.05 %: read-out: Relative Renilla Luc Intensity
Procedure: Renilla luciferase-mediated luminescence was measured from samples containing 9.6 mM phosphate buffer pH 6.8, 2.7 mM KCl, 137 mM NaCl (in PBS), 0.1% gelatin, 75 nM coelentrazine (Promega) and 10.2 ng/ml Renilla luciferase. Reactions contained either no lysing agent, 0.5% Tergitol NP-9 or 20 μg/ml digitonin. The detergents to be tested were titrated to 0.05%, 0.005% or 0.0005% in the reactions prior to the addition of the Renilla luciferase. Renilla luciferase-mediated luminescence was measured as described herein.

[6] = target: T1, Renilla luciferase; assay: biochemical; settings: 0.5% detergent in Renilla Luciferase Assay Reagent; read-out: Retained Renilla Luciferase Luminescence (%)
Procedure: The retained luminescence for each luciferase was calculated by dividing the luminescence in the presence of the detergent by the luminescence in the absence of the test detergent. The selectivity value for each of the test detergents was determined by dividing the retained firefly luciferase luminescence by the retained Renilla luciferase luminescence.
A set of detergents (Table 2; Sigma-Aldrich) was added at 0.5% (from a 5% or 10% stock solution) to either Luciferase Assay Reagent (Promega) or Renilla Luciferase Assay Reagent (Promega) and allowed to equilibrate at room temperature.
The firefly luciferase and Renilla luciferase enzymes were diluted as follows. Firefly luciferase was diluted to 14 ng/ml in Phosphate Buffered Saline (PBS) containing 0.1% of the protein carrier Prionex® (Pentapharm). Renilla luciferase was diluted to 10 ng/ml in 1× Renilla Luciferase Lysis Buffer (Promega) containing 0.1% Prionex®. The Renilla Luciferase Lysis Buffer […] detergent micelles when using the Renilla Luciferase Assay Reagent. In the absence of other detergents, this prevents sequestering of coelenterazine which inhibits Renilla luciferase-mediated luminescence.
The luciferase reactions were initiated by adding 40 μl of either the firefly or Renilla luciferase enzyme solution to 200 μl of the appropriate reagent solution (firefly luciferase enzyme solution+firefly luciferase reagent solution or Renilla luciferase enzyme solution+Renilla luciferase reagent solution, respectively). The reactions were performed in an opaque white, 96-well plate and luminescence was measured for 0.5 seconds per well using a Turner BioSystems Veritas™ Microplate luminometer. The retained firefly luciferase and Renilla luciferase luminescence, as well as the selectivity values for each detergent, were calculated (Table 2).

[7] = target: T2, firefly luciferase; assay: Detergent titration with Tergitol NP-9, digitonin or no lysing agent, firefly luciferase (Example 4); settings: read-out: Relative Firefly Luc Intensity; for remaining activity at 0.0005 %: 0.0005% detergent; for remaining activity at 0.005 %: 0.0050% detergent; for remaining activity at 0.05 %: 0.0500% detergent
Procedure: For measurement of firefly luciferase-mediated luminescence, a solution containing 110 mM HEPES pH 7.5, 8 mM MgSO4, 0.05% gelatin, 7.35 ng/ml firefly luciferase (QuantiLum® Luciferase; Promega) and the content of the Steady-Glo Luciferase Substrate (Promega) at the equivalent of 1×, As in the Renilla luciferase reactions, reactions contained either no lysing agent, 0.5% Tergitol NP-9 or 20 μg/ml digitonin. The same detergents were titrated as described above and firefly luciferase-mediated luminescence was measured.

[8] = final conc. 0.10% detergent, read-out: Retained Firefly Luciferase Luminescence (%)
[9] = final conc. 0.10% detergent, read-out: Retained Renilla Luciferase Luminescence (%)

CC1(C)C=Cc2ccccc2[N+]1(C)C.[I-] [1,1,2,2-Tetramethyl-1,2-dihydor-quinolynium iodide]
Selectivity Value [1]: 1.0 | Retained Renilla Luciferase Luminescence (%) [1]: 88% | Retained Firefly Luciferase Luminescence (%) ([2]; final conc. 0.10% detergent): 74% | Retained Firefly Luciferase Luminescence (%) [3]: 87% | Selectivity Value ([4]; final conc. 0.10% detergent): 1.2 | Retained Renilla Luciferase Luminescence (%) ([4]; final conc. 0.10% detergent): 89%

C[N+]1(C)CCCc2cccc(O)c21.[I-] [1,1-Dimethyl-8-hydroxy-1,2,3,4-tetrahydroquinolium iodide]
Selectivity Value [1]: 0.9 | Retained Renilla Luciferase Luminescence (%) [1]: 88% | Retained Firefly Luciferase Luminescence (%) ([2]; final conc. 0.10% detergent): 68% | Retained Firefly Luciferase Luminescence (%) [3]: 81% | Selectivity Value ([4]; final conc. 0.10% detergent): 0.8 | Retained Renilla Luciferase Luminescence (%) ([4]; final conc. 0.10% detergent): 82%

CCCCCCCCCCC(C(=O)c1ccc(OC)cc1)[N+](C)(C)C.[Br-] (stereo not shown) [(1-(4-methoxybenzoyl)-undecyl)-trimethylammonium bromide]
Selectivity Value [1]: 5.3 | remaining activity at 0.03 % [1]: 20% | remaining activity at 0.1 % [2, 8]: 104% | remaining activity at 0.03 % [3]: 106% | Selectivity Value ([4]; final conc. 0.10% detergent): 52 | remaining activity at 0.1 % [4, 9]: 2%

C[P+](CCCC(=O)O)(c1ccccc1)c1ccccc1.[Cl-] [(3-Carboxyl-propyl)-methyl-diphenyl-phosphonium chloride]
Selectivity Value [1]: 1.0 | remaining activity at 0.03 % [1]: 99% | remaining activity at 0.1 % ([2]; read-out: Retained Firefly Luciferase Luminescence (%), final conc. 0.10% detergent): 102% | remaining activity at 0.03 % [3]: 98% | Selectivity Value ([4]; final conc. 0.10% detergent): 0.9 | remaining activity at 0.1 % ([4]; read-out: Retained Renilla Luciferase Luminescence (%), final conc. 0.10% detergent): 89%

CCCC[P+](CCCC)(CCCC)Cc1ccc(C)cc1.[Cl-] [(4-Methylbenzyl)tributylphosphonium chloride]
Selectivity Value [1]: 1.5 | remaining activity at 0.03 % [1]: 65% | remaining activity at 0.1 % [2, 8]: 106% | remaining activity at 0.03 % [3]: 99% | Selectivity Value ([4]; final conc. 0.10% detergent): 3.3 | remaining activity at 0.1 % [4, 9]: 32%

C=CCCC[P+](c1ccccc1)(c1ccccc1)c1ccccc1.[Br-] [(4-Penten-1-yl)triphenylphosphonium bromide]
Selectivity Value [1]: 1.7 | remaining activity at 0.03 % [1]: 57% | remaining activity at 0.1 % [2, 8]: 102% | remaining activity at 0.03 % [3]: 98% | Selectivity Value ([4]; final conc. 0.10% detergent): 4.9 | remaining activity at 0.1 % [4, 9]: 21%

CC=CC[P+](Cc1ccccc1)(c1ccccc1)c1ccccc1.[Br-] [Benzyl-but-2-enyl-diphenyl-phosphonium bromide]
Selectivity Value [1]: 2.1 | remaining activity at 0.03 % [1]: 50% | remaining activity at 0.1 % [2, 8]: 109% | remaining activity at 0.03 % [3]: 106% | Selectivity Value ([4]; final conc. 0.10% detergent): 7.8 | remaining activity at 0.1 % [4, 9]: 14%

CC[N+](CC)(CCC(=O)Nc1c(C)cccc1C)Cc1ccccc1.O=C([O-])c1ccccc1 [Benzyldiethyl(2,6-xylycarbamoylethyl)-ammonium benzoate]
Selectivity Value [1]: 1.5 | Retained Renilla Luciferase Luminescence (%) [1]: 74% | Retained Firefly Luciferase Luminescence (%) ([2]; final conc. 0.10% detergent): 102% | Retained Firefly Luciferase Luminescence (%) [3]: 110% | Selectivity Value ([4]; final conc. 0.10% detergent): 2.2 | Retained Renilla Luciferase Luminescence (%) ([4]; final conc. 0.10% detergent): 46%

CCCCCCCCCC[N+](C)(C)Cc1ccccc1.[Cl-] [Benzyldimethyldecylammonium chloride]
Selectivity Value [1]: 6.3 | remaining activity at 0.03 % [1]: 18% | remaining activity at 0.1 % [2, 8]: 112% | remaining activity at 0.03 % [3]: 114% | Selectivity Value ([4]; final conc. 0.10% detergent): 112 | remaining activity at 0.1 % [4, 9]: 1%

CCCCCCCCCCCCCCCC[N+](C)(C)Cc1ccccc1.[Cl-] [Benzyldimethylhexadecylammonium chloride]
Selectivity Value [1]: 2.1 | remaining activity at 0.03 % [1]: 47% | remaining activity at 0.1 % [2, 8]: 97% | remaining activity at 0.03 % [3]: 100% | Selectivity Value ([4]; final conc. 0.10% detergent): 32.2 | remaining activity at 0.1 % [4, 9]: 3%

C[N+](C)(Cc1ccccc1)c1ccccc1.[Br-] [Benzyldimethylphenylammonium bromide]
Selectivity Value [1]: 1.3 | Retained Renilla Luciferase Luminescence (%) [1]: 78% | Retained Firefly Luciferase Luminescence (%) ([2]; final conc. 0.10% detergent): 107% | Retained Firefly Luciferase Luminescence (%) [3]: 101% | Selectivity Value ([4]; final conc. 0.10% detergent): 1.3 | Retained Renilla Luciferase Luminescence (%) ([4]; final conc. 0.10% detergent): 81%

CCCCCCCCCCCCCCCC[N+](C)(C)C.[Cl-] [Cetyltrimethylammonium chloride]
Selective Inhibition (Ff Luc Inh/Ren Luc Inh) ([5]; 0.0005% detergent, Dig): 12 | remaining activity at 0.0005 % ([5]; 0.0005% detergent, Dig): 14% | Selective Inhibition (Ff Luc Inh/Ren Luc Inh) ([5]; 0.0005% detergent, Terg): 1.0 | remaining activity at 0.0005 % ([5]; 0.0005% detergent, Terg): 95% | Selective Inhibition (Ff Luc Inh/Ren Luc Inh) ([5]; 0.0005% detergent, Water): 13 | remaining activity at 0.0005 % ([5]; 0.0005% detergent, Water): 13% | Selective Inhibition (Ff Luc Inh/Ren Luc Inh) ([5]; 0.0050% detergent, Dig): 2829 | remaining activity at 0.005 % ([5]; 0.0050% detergent, Dig): 0.02% | Selective Inhibition (Ff Luc Inh/Ren Luc Inh) ([5]; 0.0050% detergent, Terg): 1.3 | remaining activity at 0.005 % ([5]; 0.0050% detergent, Terg): 71% | Selective Inhibition (Ff Luc Inh/Ren Luc Inh) ([5]; 0.0050% detergent, Water): 3848 | remaining activity at 0.005 % ([5]; 0.0050% detergent, Water): 0.02% | remaining activity at 0.05 % ([5]; 0.0500% (w:v) detergent, Terg (0.5% Tergitol NP-9)): 6% | Selective Inhibition (Ff Luc Inh/Ren Luc Inh) ([5]; 0.0500% detergent, Dig): 1395 | remaining activity at 0.05 % ([5]; 0.0500% detergent, Dig (20 μg/ml digitonin)): 0.02% | Selective Inhibition (Ff Luc Inh/Ren Luc Inh) ([5]; 0.0500% detergent, Terg): 6 | Selective Inhibition (Ff Luc Inh/Ren Luc Inh) ([5]; 0.0500% detergent, Water): 1611 | remaining activity at 0.05 % ([5]; 0.0500% detergent, Water (no lysing agent)): 0.02% | remaining activity at 0.5 % [6]: 5.23% | remaining activity at 0.0005 % ([7]; Dig): 164% | remaining activity at 0.0005 % ([7]; Terg): 98% | remaining activity at 0.0005 % ([7]; Water): 179% | remaining activity at 0.005 % ([7]; Dig): 65% | remaining activity at 0.005 % ([7]; Terg): 94% | remaining activity at 0.005 % ([7]; Water): 70% | remaining activity at 0.05 % ([7]; Dig (20 μg/ml digitonin)): 29% | remaining activity at 0.05 % ([7]; Terg (0.5% Tergitol NP-9)): 38% | remaining activity at 0.05 % ([7]; Water (no lysing agent)): 31%
